What was measured:
Format in all cases: cell-based, human
[1] = system: c-raf mRNA; assay: c-raf mRNA levels by Northern blot in HMVEC
Method: (§1) Human dermal microvascular cells (HMVEC-d; Clonetics, San Diego, Calif.) were cultivated in endothelial basal media (EBM, Clonetics) supplemented with 10% fetal bovine serum (HyClone, Logan, Utah). Cells were grown in 100 mm petri dishes until 70-80% confluent, then washed with PBS and OPTI-MEM (Life Technologies, Inc., Gaithersburg, Md.). The cells were then incubated in the presence of OPTI-MEM and […] LIPOFECTIN (a 1:1 (w/w) liposome formulation of the cationic lipid N-[1-(2,3-dioleyloxy)propyl]-n,n,n-trimethylammonium chloride (DOTMA), and dioleoyl phosphotidylethanolamine (DOPE) in membrane filtered water (Life Technologies, Gaithersburg, Md.), per 100 nM of oligonucleotide followed by addition of oligonucleotide at the appropriate concentrations.
(§2) For determination of mRNA levels by Northern blot, total RNA was prepared from cells by the guanidinium isothiocyanate procedure or by the Qiagen RNAEASY method (Qiagen, Santa Clarita, Calif.) at the indicated times after initiation of oligonucleotide treatment. Northern blot analysis was performed as described in Current Protocols in Molecular Biology (Ausubel, F. M., et al., (eds), 1987, Greene Publishing Assoc. and Wiley Interscience, New York). A glyceraldehyde 3-phosphate dehydrogenase (G3PDH) probe was purchased from Clontech (Palo Alto, Calif., Catalog Number 9805-1). RNA was quantified and normalized to G3PDH mRNA levels using a Molecular Dynamic PHOSPHORIMAGER (Sunnyvale, Calif.).
ISIS 12854 (SEQ ID NO. 2) is a 2'-O-methoxyethyl mixed backbone chimeric antisense oligonucleotide designed to hybridize with 3'-untranslated sequences contained within human c-raf mRNA. To determine whether this antisense oligonucleotide is effective as a c-raf inhibitor in endothelial cells, human dermal microvascular cells (HMVEC) were treated with ISIS 12854 (SEQ ID NO. 2) as described in Example 2. C-raf mRNA and protein expression was examined by northern and Western blot analysis. The c-raf cDNA probe was generated from the plasmid, p627 (American Type Culture Collection, Manassas, Va.; catalog #41050), following the supplied instructions. The c-raf antibody was obtained from Transduction Laboratories, Inc. (Lexington, Ky.).

[2] = system: E-selectin; assay: TNF-α-induced E-selectin cell surface expression in HMVEC, flow cytometry
Method: as §1
(§3) The effect of c-raf and Ha-ras antisense oligonucleotide treatment on the induction of E-selectin by TNF-α was examined. HMVEC cells were treated with either the c-raf or Ha-ras antisense compound under dose-response conditions or over time at a single dose level followed by stimulation of E-selectin expression by TNF-α for 5 hours. The cell surface expression of E-selectin was determined by flow cytometry analysis. Following oligonucleotide treatment, cells were detached from the plates and analyzed for surface expression of cell adhesion molecules using a Becton Dickinson (San Jose, Calif.) FACScan. TNF-α and FITC conjugated antibody for E-selectin were obtained from R & D Systems (Minneapolis, Minn.). PE-conjugated antibody for ICAM-1 was obtained from Pharmingen (San Diego, Calif.). VCAM-1 antibody was obtained from Santa Cruz Biotechnology, Santa Cruz, Calif. Cell surface expression was calculated using the mean value of fluorescence intensity using 3,000-5,000 cells stained with the appropriate antibody for each sample and time point. Results are expressed as percentage of control (cell surface expression induced by TNF-α in cells that were not treated with oligonucleotides) based upon mean fluorescence intensity.
The effects of c-raf, Ha-ras, and a E-selectin antisense oligonucleotide on TNF-α-induced E-selectin cell surface expression under kinetic conditions were examined. […] To test this, cells were treated, separately, with antisense oligonucleotides to E-selectin, ICAM-1 and VCAM-1 and allowed to recover prior to TNF-α treatment. […] E-selectin cell surface expression was measured by flow cytometry analysis after 5 hours of TNF-A treatment.

[3] = system: ICAM-1; assay: TNF-α-induced ICAM-1 cell surface expression in HMVEC, flow cytometry
Method: as §1
as §3, with “intensity. Basal expression of E-selectin and VCAM-1 is undetectable in the absence of TNF-α whereas a low level of basal expression is detectable for ICAM-1.” for “intensity.”
(§4) TNF-α induction of ICAM-1 and VCAM-1 in cells treated with c-raf and Ha-ras antisense oligonucleotides was also examined to further define the roles of c-raf and Ha-ras in cytokine signaling. Oligonucleotides were tested, using flow cytometry analysis, as described in Example 4. Results are shown in Table 6 (ICAM-1) and Table 7 (VCAM-1).

[4] = system: VCAM-1; assay: TNF-α-induced VCAM-1 cell surface expression in HMVEC, flow cytometry
Method: as §1
as §3, with “intensity. Basal expression of E-selectin and VCAM-1 is undetectable in the absence of TNF-α whereas a low level of basal expression is detectable for ICAM-1.” for “intensity.”
as §4

[5] = system: E-selectin mRNA; assay: TNF-α-induced E-selectin mRNA, Northern blot; details: 48 hrs recovery, TNF-α two to three hours before RNA analysis
Method: as §2
(§5) Northern blot analysis was carried out to examine whether c-raf and Ha-ras antisense oligonucleotides inhibit the induction of cell adhesion molecules at the transcriptional level. Cells were treated with c-raf (ISIS 12854, SEQ ID NO. 2) or Ha-ras (ISIS 15168, SEQ ID NO. 4) antisense oligonucleotides and allowed to recover for 48 hrs. TNF-α was added two to three hours prior to RNA analysis and Northern blotting was performed with probes specific for E-selectin, ICAM-1, and VCAM-1. The probe for E-selectin was obtained by PCR amplification using primers directed to HUMELAM1A (Genbank Accession No. M24736; SEQ ID NO. 18).

[6] = system: ICAM-1 mRNA; assay: TNF-α-induced ICAM-1 mRNA, Northern blot; details: 48 hrs recovery, TNF-α two to three hours before RNA analysis
Method: as §2, §5

[7] = system: VCAM-1 mRNA; assay: TNF-α-induced VCAM-1 mRNA, Northern blot; details: 48 hrs recovery, TNF-α two to three hours before RNA analysis
Method: as §2, §5

[8] = system: JNK1 mRNA; assay: JNK1 mRNA expression by Northern blot; details: at the concentration tested, FIG. 4
Method: as §1
For determination of mRNA levels by Northern blot, total RNA was prepared from cells by the guanidinium isothiocyanate procedure or by the Qiagen RNAEASY method (Qiagen, Santa Clarita, Calif.) at the indicated times after initiation of oligonucleotide treatment. Northern blot analysis was performed as described in Current Protocols in Molecular Biology (Ausubel, F. M., et al., (eds), 1987, Greene Publishing Assoc. and Wiley Interscience, New York). […] RNA was quantified and normalized to G3PDH mRNA levels using a Molecular Dynamic PHOSPHORIMAGER (Sunnyvale, Calif.). […]

[9] = system: JNK1; assay: TNF-α-mediated JNK1 kinase activity, isoform-specific JNK assay; details: FIG. 5
Method: To examine the effect of the c-raf antisense oligonucleotide (ISIS 12854, SEQ ID NO. 2) on ERK, JNK, and p38 MAPK activities stimulated by TNF-α, in vitro kinase assays were performed on extracts derived from cells treated with ISIS 12854 (SEQ ID NO. 2). Cells were treated with oligonucleotides and induced with cytokines. At the indicated time, cells were lysed on ice and debris was removed by centrifugation. Protein concentration was measured by Bradford assay. Lysate containing equal amounts of protein were incubated with primary antibody-agarose conjugates (ERK and p38 assay; Santa Cruz Biotechnology, Santa Cruz, Calif.), or with JNK1-specific or JNK2-specific antibodies (JNK assay; Upstate Biotechnology, Lake Placid, N.Y.), overnight at 4° C.
For isoform-specific JNK assays, anti-rabbit IgG conjugated with agarose beads was added to cell extracts following JNK antibody treatment and wash steps and incubated for 2 hours at 4° C. After washing with lysis buffer and kinase buffer, the pelleted beads were incubated with 1 μg of substrate (Elk-1 for ERK, ATF-2 for p38, and c-Jun for JNK MAPK) and 100 […] of ATP for 20 minutes at 37° C. MAPK and JNK assay kits, ATF-2 fusion protein, and antibodies for ATF-2, Elk-1 phospho-ATF-2 were purchased from New England BioLabs (Boston, Mass.). Reactions were terminated by the addition of 3×SDS sample buffer followed by boiling. […]

[10] = Table 9, JNK antisense series, 20 nM
[11] = Table 9, JNK antisense series, 50 nM
[12] = Table 9, JNK antisense series, 100 nM
[13] = time course, 12 h/20 h after oligonucleotide treatment, TNF-α 5 hours
[14] = time course, 48 h after oligonucleotide treatment, TNF-α 5 hours
[15] = time course, 72 h after oligonucleotide treatment, TNF-α 5 hours

For “AoToGoCoAoTsTsCsTsGsCsCsCsCsCoAoAoGoGoA [ISIS 15727, reference compound]”, the “effect on c-raf mRNA” value [1] was “did not exhibit any effect”, the “% mRNA Expression (c-raf)” value ([1]; 100 nM) was 96% and the “% mRNA Inhibition (c-raf)” value ([1]; 100 nM) was 4%. For the same substance, the “% mRNA Expression (c-raf)” value ([1]; 200 nM) was 135%, the “% Cell Surface Expression (E-selectin)” value ([2]; 25 nM, TNF-α for 5 hours, % of control) was 119% and the “% Cell Surface Inhibition (E-selectin)” value ([2]; 75 nM, TNF-α for 5 hours) was 6%. The “% Cell Surface Expression (E-selectin)” value ([2]; 75 nM, TNF-α for 5 hours, % of control) was 94%, the “% Cell Surface Expression (E-selectin)” value ([2]; 150 nM, TNF-α for 5 hours, % of control) was 106% and the “% Cell Surface Expression (E-selectin)” value [2, 10] was 137%. The “% Cell Surface Expression (E-selectin)” value [2, 11] was 128%, the “% Cell Surface Expression (E-selectin)” value [2, 12] was 124% and the “effect on E-selectin induction” value ([2]; dose response, HMVEC) was “little to no effect”. The “% Cell Surface Expression (E-selectin)” value [2, 13] was 93%, the “% Cell Surface Inhibition (E-selectin)” value [2, 13] was 7% and the “% Cell Surface Expression (E-selectin)” value [2, 14] was 106%. For the same substance, the “% Cell Surface Expression (E-selectin)” value [2, 15] was 81%, the “% Cell Surface Inhibition (E-selectin)” value [2, 15] was 19% and the “% Cell Surface Expression (ICAM-1)” value ([3]; 20 nM) was 97%. The “% Cell Surface Inhibition (ICAM-1)” value ([3]; 20 nM) was 3%, the “% Cell Surface Expression (ICAM-1)” value ([3]; 50 nM) was 89% and the “% Cell Surface Inhibition (ICAM-1)” value ([3]; 50 nM) was 11%. For the same substance, the “% Cell Surface Expression (ICAM-1)” value ([3]; 100 nM) was 87%, the “% Cell Surface Inhibition (ICAM-1)” value ([3]; 100 nM) was 13% and the “% Cell Surface Expression (VCAM-1)” value ([4]; 20 nM) was 69%. For the same substance, the “% Cell Surface Inhibition (VCAM-1)” value ([4]; 20 nM) was 31%, the “% Cell Surface Expression (VCAM-1)” value ([4]; 50 nM) was 81% and the “% Cell Surface Inhibition (VCAM-1)” value ([4]; 50 nM) was 19%. The “% Cell Surface Expression (VCAM-1)” value ([4]; 100 nM) was 74%, the “% Cell Surface Inhibition (VCAM-1)” value ([4]; 100 nM) was 26% and the “% mRNA Expression (E-selectin)” value [5] was 103%. The “% mRNA Expression (ICAM-1)” value [6] was 107% and the “% mRNA Expression (VCAM-1)” value [7] was 113%.
“CoToCoToCoTsGsTsAsGsGsCsCsCsGsCoToToGoG [ISIS 15347]” was tested, and the “% Cell Surface Expression (E-selectin)” value [2, 10] was 89%, the “% Cell Surface Inhibition (E-selectin)” value [2, 10] was 11% and the “% Cell Surface Expression (E-selectin)” value [2, 11] was 84%. For the same substance, the “% Cell Surface Inhibition (E-selectin)” value [2, 11] was 16%, the “% Cell Surface Expression (E-selectin)” value [2, 12] was 82% and the “% Cell Surface Inhibition (E-selectin)” value [2, 12] was 18%. For the same substance, the “JNK1 mRNA expression” value [8] was “nearly complete inhibition” and the “TNF-α-mediated induction of JNK1 activity” value [9] was “effectively reduced”.
For “GsAsAsGsTsCsAsGsCsCsAsAsGsAsAsCsAsGsCsT (GAAGTCAGCCAAGAACAGCT; all phosphorothioate, sugars by position and methylation of C not given here) [ISIS 11928, fully phosphorothioated oligonucleotide with all 2'-methoxyethoxy nucleotides except a 3' terminal 2'-deoxy nucleotide, antisense to E-selectin]”, the “block of E-selectin cell surface expression” value ([2]; concentrations as low as 20 nM, 12 hours following treatment) was 80%, the “% Cell Surface Expression (E-selectin)” value [2, 13] was 22% and the “% Cell Surface Inhibition (E-selectin)” value [2, 13] was 78%. For the same substance, the “% Cell Surface Expression (E-selectin)” value [2, 14] was 29%, the “% Cell Surface Inhibition (E-selectin)” value [2, 14] was 71% and the “% Cell Surface Expression (E-selectin)” value [2, 15] was 32%. The “% Cell Surface Inhibition (E-selectin)” value [2, 15] was 68%.

Reference: US6114517A, “Methods of modulating tumor necrosis factor α-induced expression of cell adhesion molecules” (Isis Pharmaceuticals Inc., priority 1998, dated 2000)
